From paper PMC2919500 (Biochemistry, 2008)
Read-outs that look alike come from different tables or passages of the source.

Legend:
[1] = biological target: T1, AKT1 PH domain (Homo sapiens, UniProt P31749); test: Direct IP6 titration of the free PH domain; details: read-out: KD(IP6); free WT AKT1 PH domain, 25 °C, binding buffer pH 7.4
[2] = biological target: T2, AKT1 E17K PH domain (Homo sapiens, UniProt P31749, E17K); test: Direct IP6 titration of the free PH domain; assay type: binding
[3] = biological target: T2, AKT1 E17K PH domain; test: IP6 competitive displacement assay; details: for Ki: read-out: KI(IP6)
[4] = biological target: T3, PLCδ1 PH domain (Mus musculus, UniProt Q8R3B1); test: IP6 competitive displacement assay
T3 sequence (Q8R3B1 12-142): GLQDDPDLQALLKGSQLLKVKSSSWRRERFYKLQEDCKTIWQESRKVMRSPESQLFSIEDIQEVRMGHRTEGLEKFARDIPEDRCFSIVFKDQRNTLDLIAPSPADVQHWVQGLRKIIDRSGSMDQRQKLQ

[5] = biological target: T1, AKT1 PH domain; test: IP6 competitive displacement assay
[6] = biological target: T3, PLCδ1 PH domain; test: Direct IP6 titration of the free PH domain; details: read-out: KD(IP6), 25 °C, binding buffer pH 7.4
[7] = biological target: Citrine-AKT1 PH (Homo sapiens, UniProt P31749); test: Plasma membrane targeting in live NIH 3T3 cells; assay type: cell-based; details: serum-starved NIH 3T3 cells, 10 nM PDGF 5 min, then 800 nM wortmannin 15 min
Chain of Citrine-AKT1 PH (P31749 5-108 limits assumed): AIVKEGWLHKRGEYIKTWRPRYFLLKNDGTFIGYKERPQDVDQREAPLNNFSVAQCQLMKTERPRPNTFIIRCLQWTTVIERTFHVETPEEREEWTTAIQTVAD

[8] = biological target: T4, CFP-PLCδ1 PH (Homo sapiens, UniProt P51178); test: Plasma membrane targeting in live NIH 3T3 cells; assay type: cell-based; details: serum starvation with inhibitor prior to imaging, data not shown
T4 sequence (P51178 21-130 limits assumed): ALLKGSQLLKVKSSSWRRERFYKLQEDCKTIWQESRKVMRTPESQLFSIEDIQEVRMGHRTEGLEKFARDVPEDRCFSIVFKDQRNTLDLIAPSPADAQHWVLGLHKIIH

[9] = biological target: RFP-AKT1 E17K PH (Homo sapiens, UniProt P31749, E17K); test: Plasma membrane targeting in live NIH 3T3 cells; assay type: cell-based; details: serum starvation with inhibitor prior to imaging, data not shown
Chain of RFP-AKT1 E17K PH (P31749 5-108 E17K limits assumed): as the sequence (P31749 5-108 limits assumed) above, with E13K counted along it

[10] = biological target: T2, AKT1 E17K PH domain; test: Stopped-flow association and dissociation kinetics

T1 sequence (P31749 1-120): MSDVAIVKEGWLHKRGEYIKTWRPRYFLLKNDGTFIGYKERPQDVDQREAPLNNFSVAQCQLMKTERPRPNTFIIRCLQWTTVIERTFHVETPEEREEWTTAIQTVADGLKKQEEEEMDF
T2 sequence (P31749 1-120 E17K): as the sequence (P31749 1-120) above, with E17K counted along it

O=P(O)(O)OC1C(OP(=O)(O)O)C(OP(=O)(O)O)C(OP(=O)(O)O)C(OP(=O)(O)O)C1OP(=O)(O)O (stereo not drawn) [IP6, inositol 1,2,3,4,5,6-hexakisphosphate]
Kd [1]: 260 ± 50 µM
Kd ([2]; read-out: KD(IP6), free AKT1 E17K PH domain, 25 °C, binding buffer pH 7.4): 11 ± 1 µM
additional IP6 binding free energy from the E17K mutation ([2]; ΔΔG, E17K versus WT AKT1 PH): 3.0 RT
Ki ([3]; displacement of AKT1 E17K PH from PM(+)PI(3,4,5)P3): 8000 ± 2000 µM
Ki ([3]; displacement of AKT1 E17K PH from PM(+)PI(4,5)P2): 210 ± 10 µM
Ki ([4]; read-out: KI(IP6), displacement of PLCδ1 PH from PM(+)PI(4,5)P2): 47 ± 4 µM
Ki ([5]; read-out: KI(IP6), displacement of AKT1 PH from PM(+)PI(3,4,5)P3): 28000 ± 1000 µM
Kd [6]: 3 ± 0.2 µM

COC[C@H]1OC(=O)c2coc3c2[C@@]1(C)C1=C(C3=O)[C@@H]2CCC(=O)[C@@]2(C)C[C@H]1OC(C)=O [wortmannin]
localization of the WT AKT1 PH domain after PI3K inhibition [7]: returns to the cytoplasm
constitutive plasma membrane targeting in the presence of a PI3K inhibitor [8]: not disrupted
constitutive plasma membrane targeting in the presence of a PI3K inhibitor [9]: not disrupted

L-α-phosphatidylinositol 4,5-bisphosphate [PI(4,5)P2]
kon ([10]; 0.5 µM protein, 200 µM total lipid, 25 °C): 1.3 ± 0.1 ×10^7 M^−1 s^−1
koff ([10]; dissociation with excess IP6 (40 mM), 25 °C): 1.5 ± 0.1 s⁻¹
Kd ([10]; read-out: KD (koff/kon), calculated from the rate constants): 0.12 ± 0.01 µM
affinity enhancement by E17K larger than for the other two ligands ([3]; PI(4,5)P2 versus IP6 and PI(3,4,5)P3): at least 10 fold
Kd ([3]; read-out: KD(PIPn), AKT1 E17K PH, PIP lipid embedded in synthetic plasma membrane, from KD(IP6) and KI(IP6)): 0.13 ± 0.03 µM
Kd ([4]; read-out: KD(PIPn), PLCδ1 PH, PIP lipid embedded in synthetic plasma membrane, from KD(IP6) and KI(IP6)): 0.19 ± 0.07 µM
Kd ([5]; read-out: KD(PIPn), WT AKT1 PH, PIP lipid embedded in synthetic plasma membrane, from KD(IP6) and KI(IP6)): > 10 µM
